Assay [1] deals with T1, Full-length wild type HIV-1 integrase (SF1) (Human immunodeficiency virus type 1 group M subtype B, UniProt P04585).
T1 construct: made in house; host or cells: E. coli BL21 (DE3)
Briefly: Integrase strand-transfer scintillation proximity assay. Type of assay: biochemical. Particulars: 50 min at 37° C., 246 nM integrase, 50 nM host DNA. The text has this:
Integrase Strand-Transfer Scintillation Proximity Assay Oligonucleotides
Oligonucleotide #1-5′-(biotin)[…]-3′ (SEQ ID NO: 1) and oligonucleotide #2-5′-[…]-3′ (SEQ ID NO: 2), were synthesized by TriLink BioTechnologies, Inc. (San Diego, Calif.). The annealed product represents preprocessed viral ds-DNA derived from the LTR U5 sequence of the viral genome. A ds-DNA control to test for non-specific interactions was made using a 3′ di-deoxy derivative of oligonucleotide #1 annealed to oligonucleotide #2. The CA overhang at the 5′ end of the non-biotinylated strand of the ds-DNA was created artificially by using a complimentary DNA oligonucleotide shortened by 2 base pairs. This configuration eliminates the requisite 3′ processing step of the integrase enzyme prior to the strand-transfer mechanism. Host ds-DNA was prepared as an unlabeled and [^3H]-thymidine labeled product from annealed oligonucleotide #3-5-[…]-3′ (SEQ ID NO: 3), and oligonucleotide #4-5′-[…]-3′ (SEQ ID NO: 4), both synthesized by TriLink BioTechnologies, Inc. (San Diego, Calif.). The annealed product had overhanging 3′ ends of poly(dA). Host DNA was custom radiolabeled by PerkinElmer Life Sciences Inc. (Boston, Mass.) using an enzymatic method with a 12/1 ratio of [methyl-3H]dTTP/cold ds-DNA to yield 5′-blunt end ds-DNA with a specific activity of >900 Ci/mmol. The radiolabeled product was purified using a NENSORB cartridge and stored in stabilized aqueous solution (PerkinElmer). The final radiolabeled product had six [^3H]-thymidine nucleotides at both 5′ ends of the host ds-DNA. Reagents: Streptavidin-coated polyvinyltoluene (PVT) SPA beads were purchased from Amersham Biosciences (Piscataway, N.J.). Cesium chloride was purchased from Shelton Scientific, Inc. (Shelton, Conn.). White, polystyrene, flat-bottom, non-binding surface, 96-well plates were purchased from Corning. All other buffer components were purchased from Sigma (St. Louis, Mo.) unless otherwise indicated.
Enzyme Construction: Full-length wild type HIV-1 integrase (SF1) sequence (amino acids 1-288) was constructed in a pET24a vector (Novagen, Madison, Wis.). The construct was confirmed through DNA sequencing. Enzyme Purification: Full length wild-type HIV Integrase was expressed in E. coli BL21 (DE3) cells and induced with 1 mM isopropyl-1 thio-β-D-galactopyranoside (IPTG) when cells reached an optical density between 0.8-1.0 at 600 nm. Cells were lysed by microfluidation in 50 mM HEPES pH 7.0, 75 mM NaCl, 5 mM DTT, 1 mM 4-(2-Aminoethyl)benzenesulfonylfluoride HCl (AEBSF). Lysate was then centrifuged 20 minutes at 11 k rpm in GSA rotor in Sorvall RC-5B at 4° C. Supernant was discarded and pellet resuspended in 50 mM HEPES pH 7.0, 750 mM NaCl, 5 mM DTT, 1 mM AEBSF and homogenized in a 40 mL Dounce homogenizer for 20 minutes on ice. Homogenate was then centrifuged 20 minutes at 11 k rpm in SS34 rotor in Sorvall RC-5B at 4° C. Supernant was discarded and pellet resuspended in 50 mM HEPES pH 7.0, 750 mM NaCl, 25 mM CHAPS, 5 mM DTT, 1 mM AEBSF. Preparation was then centrifuged 20 minutes at 11 k rpm in SS34 rotor in Sorvall RC-5B at 4° C. Supernant was then diluted 1:1 with 50 mM HEPES pH 7.0, 25 mM CHAPS, 1 mM DTT, 1 mM AEBSF and loaded onto a Q-Sepharose column pre-equilibrated with 50 mM HEPES, pH 7.0, 375 mM NaCl, 25 mM CHAPS, 1 mM DTT, 1 mM AEBSF. The flow through peak was collected and NaCl diluted to 0.1 M with 50 mM HEPES pH 7.0, 25 mM CHAPS, 1 mM DTT, 0.5 mM AEBSF and loaded onto a SP-Sepharose column pre-equilibrated with 50 mM HEPES pH 7.0, 100 mM NaCl, 25 mM CHAPS, 1 mM DTT, 0.5 mM AEBSF. After washing the column with the equilibration buffer, a 100 to 400 mM NaCl gradient was run. The eluted integrase was concentrated and run on a S-300 gel diffusion column using 50 mM HEPES pH 7.0, 500 mM NaCl, 25 mM CHAPS, 1 mM DTT, 0.5 mM AEBSF. The peak from this column was concentrated to 0.76 mg/mL and stored at −70° C. and later used for strand transfer assays. […]

Assay [2] concerns RF strain of HIV-1 in CEM-SS cells. The experiment in a line: HIV-1 cell protection assay (XTT dye reduction). It counts as cell-based. Particulars: Human immunodeficiency virus 1, CEM-SS, 144 h, HIV-1 RF, CEM-SS cells, XTT dye reduction, six days; read-out: EC50. How it is done: HIV-1 Cell Protection Assay
The antiviral activities of potential modulator compounds (test compounds) were determined in HIV-1 cell protection assays using the RF strain of HIV-1, CEM-SS cells, and the XTT dye reduction method (Weislow, O. S. et al., J. Natl. Cancer Inst. 81: 577-586 (1989)). Subject cells were infected with HIV-1 RF virus at an moi of 0.025 to 0.819 or mock infected with medium only and added at 2×10^4 cells per well into 96 well plates containing half-log dilutions of test compounds. Six days later, 50 μl of XTT solution (1 mg/ml XTT tetrazolium and […] phenazine methosulfate) were added to the wells and the plates were reincubated for four hours. Viability, as determined by the amount of XTT formazan produced, was quantified spectrophotometrically by absorbance at 450 nm. Data from CPE assays were expressed as the percent of formazan produced in compound-treated cells compared to formazan produced in wells of uninfected, compound-free cells. […] The therapeutic index was calculated by dividing the cytotoxicity (CC50) by the antiviral activity (EC50).

The mark [3] stands for this setting: strand transfer, read-out: IC50.

Where two headings read alike, the source gives them in different places.

`O=C(NO)c1cc2c(cn1)c(C(O)c1ccc(F)cc1)cn2Cc1ccc(F)cc1` (centres unmarked) [Example 31, 1-(4-Fluorobenzyl)-3-[(4-fluorophenyl)(hydroxy)methyl]-N-hydroxy-1H pyrrolo[3,2-c]pyridine-6-carboxamide]: the IC50 in assay [1] (setting [3]) worked out at 186 nM. Moreover, in assay [2], the EC50 was found to be 14 nM.
The corresponding values for `O=C(NO)c1cc2c(CN3CC[C@@H]4C(=O)NC[C@@H]4C3)cn(Cc3ccc(F)cc3F)c2cn1` (racemic) [Example 16, rac 1-(2,4-difluorobenzyl)-N-hydroxy-3-{[(3aR*,7aS*)-1-oxooctahydro-5H-pyrrolo[3,4-c]pyridin-5-yl]methyl}-1H-pyrrolo[2,3-c]pyridine-5-carboxamide] are 108 nM and 12 nM.
In the same order, the values of `O=C(NO)c1cc2c(CN3CCCCC3)cn(Cc3ccc(F)cc3F)c2cn1` [Example 6, 1-(2,4-difluorobenzyl)-N-hydroxy-3-(piperidin-1-ylmethyl)-1H-pyrrolo[2,3-c]pyridine-5-carboxamide] are 108 nM and 5.2 nM.
In the same order, the values of `O=C(NO)c1cc2c(CNCC(O)c3ccccc3)cn(Cc3ccc(F)cc3F)c2cn1` (centres unmarked) [Example 84, 1-(2,4-Difluorobenzyl)-N-hydroxy-3-{[(2-hydroxy-2-phenylethyl)amino]methyl}-1H-pyrrolo[2,3-c]pyridine-5-carboxamide] are 316 nM and 51 nM.
As for `COc1c(C(=O)N(C)O)ncc2c1ccn2Cc1ccc(F)cc1` [Example 44, 1-(4-Fluorobenzyl)-N-hydroxy-4-methoxy-N-methyl-1H-pyrrolo[2,3-c]pyridine-5-carboxamide], the IC50 in assay [1] (setting [3]) is 2250 nM. The EC50 in assay [2] was 1200 nM.
In the same order, the values of `CN1CCCC1CCNCc1cn(Cc2ccc(F)cc2F)c2cnc(C(=O)NO)cc12` (centres unmarked) [Example 51, 1-(2,4-Difluorobenzyl)-N-hydroxy-3-({[2-(1-methylpyrrolidin-2-yl)ethyl]amino}methyl)-1H-pyrrolo[2,3-c]pyridine-5-carboxamide] are 752 nM and 230 nM.
In the same order, the values of `O=C(NO)c1cc2c(CNC3CC3c3ccccc3)cn(Cc3ccc(F)cc3F)c2cn1` (racemic) [Example 75, rac-1-(2,4-Difluorobenzyl)-N-hydroxy-3-({[(1S,2R)-2-phenylcyclopropyl]amino}methyl)-1H-pyrrolo[2,3-c]pyridine-5-carboxamide] are 382 nM and 14 nM.
In the same order, the values of `CN(O)C(=O)c1cc2c(CN3CC[C@H]4CNC(=O)[C@H]4C3)cn(Cc3ccc(F)cc3F)c2cn1` [Example 113] are 40 nM and 437 nM.
Take `COCc1c(C(=O)NOC)ncc2c1ccn2Cc1ccc(F)cc1F` [Example 20]: 1540 nM corresponded to half-maximal inhibition in assay [1] (IC50, strand transfer) (IC50). Also, the EC50 in assay [2] is 82 nM.
Regarding `O=C(NO)c1cc2c(CNCc3ccc(F)cc3)cn(Cc3ccc(F)cc3F)c2cn1` [Example 70, 1-(2,4-Difluorobenzyl)-3-{[(4-fluorobenzyl)amino]methyl}-N-hydroxy-1H-pyrrolo[2,3-c]pyridine-5-carboxamide], the IC50 in assay [1] (setting [3]) was found to be 332 nM. The EC50 in assay [2] was 22 nM.
The corresponding values for `O=C(NO)c1cc2c(CNCC34CCCN3CCC4)cn(Cc3ccc(F)cc3F)c2cn1` [Example 92, 1-(2,4-Difluorobenzyl)-N-hydroxy-3-{[(tetrahydro-1H-pyrrolizin-7a(5H)-ylmethyl)amino]methyl}-1H-pyrrolo[2,3-c]pyridine-5-carboxamide] are 425 nM and 70 nM.
In the same order, the values of `O=C(NO)c1cc2ncn(CCC3CCCCC3)c2cn1` [Example 25, 3-(2-Cyclohexylethyl)-N-hydroxy-3-H-imidazo[4,5-c]pyridine-6-carboxamide] are 1720 nM and 230 nM.
In the same order, the values of `O=C(NO)c1cc2c(CNCCN3CCOCC3)cn(Cc3ccc(F)cc3F)c2cn1` [Example 54] are 746 nM and 38 nM.
For the molecule `O=C(NO)c1cc2c(CNCC3CCCO3)cn(Cc3ccc(F)cc3F)c2cn1` (centres unmarked) [Example 60, 1-(2,4-Difluorobenzyl)-N-hydroxy-3-{[(tetrahydrofuran-2-ylmethyl)amino]methyl}-1H-pyrrolo[2,3-c]pyridine-5-carboxamide], the IC50 in assay [1] (setting [3]) was 521 nM. Also, in assay [2], the EC50 is 12 nM.
Consider `O=C(NO)c1cc2c(CN3CCOCC3)cn(Cc3ccc(F)cc3F)c2cn1` [Example 2, 1-(2,4-difluorobenzyl)-N-hydroxy-3-(morpholin-4-ylmethyl)-1H-pyrrolo[2,3-c]pyridine-5-carboxamide], for which the concentration for half-maximal inhibition (IC50) in assay [1] (setting [3]) came out at 52.3 nM. The EC50 in assay [2] was found to be 68 nM.
The corresponding values for `CC(C)(C)[C@@H](CO)NCc1cn(Cc2ccc(F)cc2F)c2cnc(C(=O)NO)cc12` [Example 87, 1-(2,4-Difluorobenzyl)-N-hydroxy-3-({[(1S)-1-(hydroxymethyl)-2,2-dimethylpropyl]amino}methyl)-1H-pyrrolo[2,3-c]pyridine-5-carboxamide] are 814 nM and 67 nM.
The molecule `CN1CCN(Cc2cn(Cc3ccc(F)cc3)c3cnc(C(=O)N(C)O)cc23)CC1` [Example 14, 1-(4-Fluorobenzyl)-AN-hydroxy-N-methyl-3-[(4-methylpiperazin-1-yl)methyl]-1H-pyrrolo[2,3-c]pyridine-5-carboxamide] yielded an IC50 in assay [1] (IC50, strand transfer) of 540 nM. In assay [2], the concentration giving a half-maximal response (EC50) worked out at 140 nM.
With `Cc1cccc(CNCc2cn(Cc3ccc(F)cc3F)c3cnc(C(=O)NO)cc23)c1` [Example 79, 1-(2,4-Difluorobenzyl)-N-hydroxy-3-{[(3-methylbenzyl)amino]methyl}-1H-pyrrolo[2,3-c]pyridine-5-carboxamide], the IC50 in assay [1] (setting [3]) was determined as 243 nM. In assay [2], the EC50 turned out to be 20 nM.
Regarding `CN(Cc1cnn(-c2ccccc2)c1)Cc1cn(Cc2ccc(F)cc2F)c2cnc(C(=O)NO)cc12` [Example 93, 1-(2,4-Difluorobenzyl)-N-hydroxy-3-({methyl[(1-phenyl-1H-pyrazol-4-yl)methyl]amino}methyl)-1H-pyrrolo[2,3-c]pyridine-5-carboxamide], the IC50 in assay [1] (setting [3]) amounted to 187 nM. For the same molecule, the EC50 in assay [2] turned out to be 71 nM.

For the origin of these results see patent US7468375B2 (Pfizer Inc., priority 2004, dated 2008).
